Like-named read-outs stand apart in the source and are kept apart here.
Columns and labels:
[1] = tested on: primary human lung cancer LU1656 xenograft; assay: In-vivo antitumor activity, subcutaneous LU1656 xenograft, first and second phase (Example 3); conditions: for T-C (days) at 500 mm^3 / T/C (%) / Tumor Size (mm^3) at Day 50 Post Tumor Implantation / Tumor Size (mm^3) at Day 61 Post Tumor Implantation: p.o.; for Tumor Size (mm^3) at Day 50 Post Tumor Implantation / Tumor Size (mm^3) at Day 61 Post Tumor Implantation: Mean ± SEM
Method: The in-vivo antitumor activity […] of the phosphatidylinositol-3-kinase inhibitor compound COMPOUND B in combination with either the anaplastic lymphoma kinase inhibitor COMPOUND D or crizotinib and (b) of the phosphatidylinositol-3-kinase inhibitor compound COMPOUND C in combination with either the anaplastic lymphoma kinase inhibitor COMPOUND D or crizotinib is evaluated in the treatment of subcutaneous primary human lung cancer LU1656 xenograft models in nu/nu mice.
(§1) Experiments are performed with female Mus Musculus nu/nu mice (Vital River Laboratories, China) approximately 7-8 weeks of age and 19-24 g body weight at treatment start. All animals are housed in laminar flow rooms at constant temperature (approximately 20-26° C.) and humidity (approximately 40-70%) with 4 or 5 animals in each cage. All animals have free access to irradiation sterilized dry granule food and sterile drinking water.
Animals are divided into 9 groups.
COMPOUND B in form of its monohydrochloride salt (Novartis) is obtained as a powder and stored at −20° C. 99.1 mg of COMPOUND B monohydrochoride (equivalent to 91 mg of free base) is formulated in 6.5 ml of 1% Tween 80 and 6.5 ml 1% methylcellulose (M-0512). COMPOUND B is first sonicated in the 1% Tween 80 and then mixed with the 1% methylcellulose and then stirred for 1 hour and sonicated for 5 minutes to formulate a solution having a COMPOUND B concentration of 7 mg/ml. For this experiment, the COMPOUND B monohydrochloride salt is referred to as “COMPOUND B”.
COMPOUND C is obtained as a powder and stored at 4° C. A vehicle is formulated by dissolving 2 g of CMC sodium salt powder low density in 198 ml of sterile water, mixing using a magnetic beater and heating (about 50° C.), adding 1 ml Tween 80, adjusting the pH to 7.6 using NaOh/HCl, and completing the volume to 200 ml. 84 mg of COMPOUND C is suspended in 3.5 ml of this vehicle and stirred/vortexed until homogenous; another 3.5 ml of this vehicle is added and homogenized; and another 7 ml of this vehicle is added and homogenized. To reduce particle size, this solution is sonicated for 1 hour using a sonication probe while cooling in an ice bath. The solution is having a COMPOUND C concentration of 6 mg/ml.
(§2) COMPOUND D in the form of its salt (Novartis) is obtained as a powder and stored at −20° C. 388 mg of COMPOUND D salt (equivalents to 330 mg of free base) is suspended in 33 ml of 0.5% methylcellulose (M-0512) and 0.5% Tween, is sonicated and then is vortexed to formulate a solution having a COMPOUND D concentration of 10 mg/ml. Additionally, 11 ml of this 10 mg/ml concentration solution is diluted with 11 ml 0.5% methylcellulose and 0.5% Tween 80 and vortexted to form a second solution having a COMPOUND D concentration of 5 mg/ml. For this experiment, the COMPOUND D salt is referred to as “COMPOUND D”.
COMPOUND C is obtained as a powder and stored at 4° C. A vehicle is formulated by dissolving 2 g of CMC sodium salt powder low density in 198 ml of sterile water, mixing using a magnetic beater and heating (about 50° C.), adding 1 ml Tween 80, adjusting the pH to 7.6 using NaOh/HCl, and completing the volume to 200 ml.

[2] = tested on: primary human lung cancer LUF1656 xenograft; type: in vivo; conditions: PO, QD × 21 Days; for T/C (%): Day 21; for Tumor Size (mm^3) at Day 21 of Treatment: Mean ± SEM
Method: The in-vivo antitumor activity of the phosphatidylinositol-3-kinase inhibitor compound COMPOUND B in combination with either the anaplastic lymphoma kinase inhibitor COMPOUND D or crizotinib is evaluated in the treatment of subcutaneous primary human lung cancer LUF1656 xenograft models in nu/nu mice.
as §1, with “water. Animals are divided into groups of 10 animals per group.” for “water.”
COMPOUND B in form of its monohydrochloride salt (Novartis) is obtained as a powder and stored at −20° C. 323.3 mg of COMPOUND B monohydrochoride (equivalent to 294 mg of free base) is formulated in 21 ml of 1% Tween 80 and 21 ml 1% methylcellulose (M-0512). COMPOUND B is first sonicated in the 1% Tween 80 and then mixed with the 1% methylcellulose and then stirred for 1 hour and sonicated for 5 minutes to formulate a solution having a COMPOUND B concentration of 7 mg/ml. For this experiment, the COMPOUND B monohydrochloride salt is referred to as “COMPOUND B”.
as §2
Crizotinib is obtained as a powder and stored at −20° C. 220 mg of crizotinib is suspended in 22 ml 0.5% methylcellulose (MC) and sonicated to form a solution having a crizotinib concentration of 10 mg/ml. This solution can be stored at 4° C. for 1 week and protected from light.
Tumor fragments from stock mice inoculated with LUF1656 primary human lung cancer cells (Crown Bio, China) are harvested and used for inoculation into the nu/nu mice. Each mouse is inoculated subcutaneously at the right flank with one tumor fragment (2-3 mm in diameter) for tumor development. The treatments are started when mean tumor size reach approximately 135 mm^3. Animals are routinely monitored and body weight measured twice weekly. Death and observed clinical signs are recorded on the basis of the number of animals within each subset. Animals observed to be in a continuing deteriorating condition or for which the tumor size of individual animal exceeds 1/10 of the body weight are euthanized prior to death or before comatose.
Tumor size is measured twice weekly in two dimensions using a caliper and the volume is expressed in mm^3 using the formula: V=0.5 a×b^2, wherein a and b are the long and short diameters of the tumor respectively. The tumor size is then used for calculation of both T-C and T/C values. T-C is calculated with T as the time (days) required for the mean tumor size of the treatment group to reach a predetermined size (e.g., 400 mm^3) and C is the time (in days) for the mean tumor size of the control group to reach the same size. T/C value (in percent is an indication of the anti-tumor effectiveness; T and C are the mean volume of the treated and control groups, respectively, on a given day.
Summary statistics are provided for the tumor volume of each group at each time point.

[3] = first phase, Group 3: COMPOUND D 50 mg/kg, QD × 40
[4] = second phase, Group 8: COMPOUND D 25 mg/kg, QD × 40
[5] = second phase, Group 9: Crizotinib 50 mg/kg, QD × 40
[6] = first phase, Group 4: COMPOUND C 30 mg/kg, QD × 35

Cc1cc(Nc2ncc(Cl)c(Nc3ccccc3S(=O)(=O)C(C)C)n2)c(OC(C)C)cc1C1CCNCC1 [COMPOUND D, 5-Chloro-N2-(2-isopropoxy-5-methyl-4-piperidin-4-yl-phenyl)-N4-[2-(propane-2-sulfonyl)-phenyl]-pyrimidine-2,4-diamine]
antitumor activity against the LU1656 xenograft model (summary) ([1]; COMPOUND D at 25 mg/kg as a single agent): significant antitumor activity
antitumor activity against the LU1656 xenograft model (summary) ([1]; COMPOUND D at 50 mg/kg as a single agent): significant antitumor activity
T-C (days) at 500 mm^3 [1, 3]: 40 days
T/C (%) ([1]; first phase, Group 3: COMPOUND D 50 mg/kg, QD × 40, Day 50): 10.4%
Tumor Size (mm^3) at Day 50 Post Tumor Implantation [1, 3]: 218.2 mm^3
T-C (days) at 500 mm^3 [1, 4]: 34 days
T/C (%) ([1]; second phase, Group 8: COMPOUND D 25 mg/kg, QD × 40, Day 61): 14.6%
Tumor Size (mm^3) at Day 61 Post Tumor Implantation [1, 4]: 307.4 mm^3
antitumor activity compared to Crizotinib (50 mg/kg) monotherapy ([1]; second phase, COMPOUND D 25 mg/kg monotherapy, Day 64 to Day 82, p<0.05 or p<0.01 at different days): significantly improved
T/C (%) ([2]; Group 7: COMPOUND D 25 mg/kg): 16.1%
Tumor Size (mm^3) at Day 21 of Treatment ([2]; Group 7: COMPOUND D 25 mg/kg): 194.9 mm^3
T/C (%) ([2]; Group 8: COMPOUND D 50 mg/kg): 17.6%
Tumor Size (mm^3) at Day 21 of Treatment ([2]; Group 8: COMPOUND D 50 mg/kg): 213.6 mm^3

C[C@@H](Oc1cc(-c2cnn(C3CCNCC3)c2)cnc1N)c1c(Cl)ccc(F)c1Cl [Crizotinib, reference compound]
T-C (days) at 500 mm^3 [1, 5]: 14 days
T/C (%) ([1]; second phase, Group 9: Crizotinib 50 mg/kg, QD × 40, Day 61): 24.7%
Tumor Size (mm^3) at Day 61 Post Tumor Implantation [1, 5]: 520.4 mm^3
antitumor activity compared with vehicle control ([1]; second phase, Crizotinib 50 mg/kg, PO, QD×40, Day 47 to Day 61 after tumor implantation, p<0.01 or p<0.001 at different days): significant antitumor activity
T-C (days) at 400 mm^3 ([2]; Group 6: Crizotinib 50 mg/kg): 7 days
T/C (%) ([2]; Group 6: Crizotinib 50 mg/kg): 37.1%
Tumor Size (mm^3) at Day 21 of Treatment ([2]; Group 6: Crizotinib 50 mg/kg, from 9 animals' data (one outlier removed)): 450.8 ± mm^3

Cc1nc(NC(=O)N2CCC[C@H]2C(N)=O)sc1-c1ccnc(C(C)(C)C(F)(F)F)c1 [COMPOUND C, (S)-Pyrrolidine-1,2-dicarboxylic acid 2-amide 1-({4-methyl-5-[2-(2,2,2-trifluoro-1,1-dimethyl-ethyl)-pyridin-4-yl]-thiazol-2-yl}-amide)]
antitumor activity against the LU1656 xenograft model (summary) ([1]; COMPOUND C at 30 mg/kg as a single agent): significant antitumor activity
T-C (days) at 500 mm^3 [1, 6]: 11 days
T/C (%) ([1]; first phase, Group 4: COMPOUND C 30 mg/kg, QD × 35, Day 50): 36.0%
Tumor Size (mm^3) at Day 50 Post Tumor Implantation [1, 6]: 752.5 mm^3

Nc1cc(C(F)(F)F)c(-c2cc(N3CCOCC3)nc(N3CCOCC3)n2)cn1 [COMPOUND B, 5-(2,6-di-morpholin-4-yl-pyrimidin-4-yl)-4-trifluoromethyl-pyridin-2-ylamine]
T/C (%) ([2]; Group 3: COMPOUND B 35 mg/kg): 30.1%
Tumor Size (mm^3) at Day 21 of Treatment ([2]; Group 3: COMPOUND B 35 mg/kg): 365.4 mm^3

Reference: patent US20160129003A1, “Pharmaceutical Combinations” (Novartis AG, priority 2013, published 2016)
